Laboratory results taken from US20050220803A1, “Use of an organ-specific self-pathogen for treatment of a non-autoimmune disease of said organ” (Yeda Research and Development Co. Ltd., priority 2002, published 2005).
“Also recorded” adds a separate entry of the source.

Tests used:
[1] = test system: retinal ganglion cells (RGCs); assay: Glutamate toxicity: RGC loss after intravitreal L-glutamate injection and immunization; assay type: in vivo; conditions: Lewis rats
[2] = test system: retinal ganglion cells (RGCs); assay: Partial optic nerve crush injury: RGC survival after active immunization; assay type: in vivo, rats (SPD, Fisher, Lewis)
[3] = test system: spinal cord; assay: Recovery from spinal cord contusion (open-field locomotor score); assay type: in vivo; conditions: female Lewis rats; contusion at T8; 100 μg in CFA (0.5 mg/ml) within 1 h after contusion
[4] = test system: experimental autoimmune uveoretinitis (EAU); assay: Induction of uveitis / EAU by the peptide; assay type: in vivo; conditions: Lewis rats
[5] = test system: experimental autoimmune uveoretinitis (EAU); conditions: cited from earlier work; for uveitogenicity / immunopathogenicity: rat, in vivo
[6] = test system: retinal ganglion cells (RGCs); assay: RGC survival after immunization in the absence of insult; conditions: for percentage of RGC survival (mean ± SEM) vs PBS-injected controls: immunization without insult
[7] = test system: retinal ganglion cells (RGCs); conditions: glutamate insult or consequences of axonal injury; conditions where R16 protects; cited from earlier work
[8] = Fisher rats, 200 μg peptide in CFA immediately after optic nerve crush
[9] = Fisher rats, 200 μg peptide in CFA immediately after optic nerve crush, PBS control 109±12

## ADGSSWEGVGVVPVD (ADGSSWEGVGVVPDV) [Peptide R16]
[1]; 400 nmol L-glutamate intravitreal, 30 μg peptide in CFA (0.5 mg/ml) immediately after, PBS in CFA control 28±4%
  percentage of RGC loss (mean ± SEM) relative to normal retinas: 14±2%
[1]; peptide emulsified in CFA at 2.5 mg/ml, compared with PBS in CFA, data not shown
  protection of RGCs from glutamate toxicity: not protective and even caused additional neuronal loss
[2]; Fisher rats, 30 μg in CFA (2.5 mg/ml) immediately after optic nerve crush, PBS control 114±9
  surviving RGCs per square millimeter (mean ± SEM): 183±16 per square millimeter
[2]; Fisher rats, 30 μg in CFA one week before crush, booster 30 μg in IFA after injury, PBS control 89±10
  surviving RGCs per square millimeter (mean ± SEM): 165±22 per square millimeter
[2]; Lewis rats, 30 μg in CFA (2.5 mg/ml) immediately after optic nerve crush, PBS control 73±10
  surviving RGCs per square millimeter (mean ± SEM): 192±8 per square millimeter
[2]; Lewis rats, 30 μg in CFA one week before crush, booster 30 μg in IFA after injury, PBS control 95±22, not statistically significant
  surviving RGCs per square millimeter (mean ± SEM): 117±21 per square millimeter
[2]; Lewis rats, 192±8 vs 73±10 surviving RGCs/mm^2
  maximal benefit after a neuronal insult (surviving RGCs vs PBS): 263%
[2]; SPD rats, 30 μg in CFA (2.5 mg/ml) immediately after optic nerve crush, PBS control 60±14
  surviving RGCs per square millimeter (mean ± SEM): 150±13 per square millimeter
[3]
  recovery of motor activity (open-field motor score) vs PBS in CFA: did not affect spinal cord recovery; also recorded: At no time were any differences observed
[4]
  clinical onset of EAU, day after immunization: 10 days
  peak of inflammation (EAU), day after immunization: 14 days
[5]; Lewis rats, but not SPD or Fisher rats
  induction of uveitis: known to cause uveitis in Lewis rats
[6]; Fisher rats
  percentage of RGC survival (mean ± SEM) vs PBS-injected controls: 97±8%
[6]; Lewis rats, 2 weeks after vaccination
  percentage of RGC survival (mean ± SEM) vs PBS-injected controls: 83±5%
[6]; non-injured Lewis rats, 2 weeks after vaccination
  maximal loss of RGCs: ~17%

## DTALASST [M-8 analog]
[2]; [8]
  RGC survival compared with PBS-injected controls: Significantly more RGCs
[2]; [9]
  surviving RGCs per square millimeter (mean ± SEM): 159±19 per square millimeter
[5]
  uveitogenicity / immunopathogenicity: immunogenic, but not immunopathogenic

## DTNLASST [Peptide M-8]
[2]; [8]
  RGC survival compared with PBS-injected controls: Significantly more RGCs
[2]; [9]
  surviving RGCs per square millimeter (mean ± SEM): 153±10 per square millimeter
[5]
  uveitogenicity / immunopathogenicity: uveitogenic

## TSSEAATE [G-8 analog]
[2]; Fisher rats, 500 μg peptide in CFA immediately after optic nerve crush
  RGC survival compared with PBS-injected controls: Significantly more RGCs survived
[2]; Fisher rats, 500 μg peptide in CFA immediately after optic nerve crush, PBS control 90±11
  surviving RGCs per square millimeter (mean ± SEM): 175±15 per square millimeter
[5]
  uveitogenicity / immunopathogenicity: immunogenic, but not immunopathogenic

## TSSEVATE [Peptide G-8]
[2]; [8]
  RGC survival compared with PBS-injected controls: Significantly more RGCs
[2]; [9]
  surviving RGCs per square millimeter (mean ± SEM): 159±5 per square millimeter
[5]
  uveitogenicity / immunopathogenicity: uveitogenic

B1: MBP: myelin basic protein, a myelin antigen (protein, UniProt P02688 2-195, looked up)
Myelin basic protein: ASQKRPSQRHGSKYLATASTMDHARHGFLPRHRDTGILDSIGRFFSGDRGAPKRGSGKVPWLKQSRSPLPSHARSRPGLCHMYKDSHTRTTHYGSLPQKSQRTQDENPVVHFFKNIVTPRTPPPSQGKGRGLSLSRFSWGAEGQKPGFGYGGRASDYKSAHKGFKGAYDAQGTLSKIFKLGGRDSRSGSPMARR
[7]
  protective effect on RGCs by vaccination: no such protective effect
